What follows are molecules tested against T1, cellular PARG (Homo sapiens, UniProt Q86W56) (assay: Nuclear PAR accumulation assay (immunofluorescence high-content imaging, MMS-treated HeLa cells)). Settings: 1 hour compound then MMS 50 μg/mL for an additional hour.
T1 construct: endogenous in cells; host or cells: HeLa
Assay type: cell-based
Outline: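 HeLa cells pretreated with compound for 1 h at 37° C, then given 50 μg/mL MMS for another hour. After methanol fixation, PAR was immunostained with DAPI nuclear counterstain; per-nucleus intensity and percent PAR-positive cells were imaged at 20× (≥1,000 cells/well). IC50 from four-parameter logistic fit.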

T1 sequence (Q86W56 whole entry): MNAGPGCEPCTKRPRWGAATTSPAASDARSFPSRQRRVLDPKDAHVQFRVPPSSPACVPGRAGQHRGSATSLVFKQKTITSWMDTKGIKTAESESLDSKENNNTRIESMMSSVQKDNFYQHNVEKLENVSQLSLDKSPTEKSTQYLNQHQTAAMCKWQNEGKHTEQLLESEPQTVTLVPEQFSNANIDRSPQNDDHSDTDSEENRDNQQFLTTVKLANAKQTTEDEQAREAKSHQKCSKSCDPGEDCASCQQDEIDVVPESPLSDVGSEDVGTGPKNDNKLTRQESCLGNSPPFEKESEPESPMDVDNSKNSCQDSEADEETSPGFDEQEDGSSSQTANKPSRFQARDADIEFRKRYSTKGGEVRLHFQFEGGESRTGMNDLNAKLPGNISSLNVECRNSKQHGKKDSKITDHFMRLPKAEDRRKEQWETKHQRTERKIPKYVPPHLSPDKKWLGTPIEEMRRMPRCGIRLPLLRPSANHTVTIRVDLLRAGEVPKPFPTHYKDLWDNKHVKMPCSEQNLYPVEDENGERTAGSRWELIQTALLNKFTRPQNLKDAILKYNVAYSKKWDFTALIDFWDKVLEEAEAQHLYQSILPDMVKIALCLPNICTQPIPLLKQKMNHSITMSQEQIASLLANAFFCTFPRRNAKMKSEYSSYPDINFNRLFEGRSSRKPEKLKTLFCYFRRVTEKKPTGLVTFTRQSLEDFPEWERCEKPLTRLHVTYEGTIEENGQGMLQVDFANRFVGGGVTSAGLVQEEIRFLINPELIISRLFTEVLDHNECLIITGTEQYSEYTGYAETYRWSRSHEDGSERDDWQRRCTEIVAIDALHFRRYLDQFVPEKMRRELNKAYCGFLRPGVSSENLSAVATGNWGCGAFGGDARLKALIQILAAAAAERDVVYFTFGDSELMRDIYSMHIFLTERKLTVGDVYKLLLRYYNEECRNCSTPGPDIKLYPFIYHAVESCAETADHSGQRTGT

IC50	SMILES
1 to 10 µM	C[C@@H]1CN=C2N(Cc3cnn(C)c3)C(=O)c3cc(S(=O)(=O)NC4(C)CC4)cc(N4CC(C)(C#N)C4)c3N21 [Example 146, (R)-9-(3-cyano-3-methylazetidin-1-yl)-1-methyl-4-((1-methyl-1H-pyrazol-4-yl)methyl)-N-(1-methylcyclopropyl)-5-oxo-1,2,4,5-tetrahydroimidazo[1,2-a]quinazoline-7-sulfonamide]
< 0.1 µM	CN1C(=O)c2cc(S(=O)(=O)NC3(C)CC3)ccc2N2C1=NC[C@H]2C#Cc1ccc2cn(C)nc2c1 [Example 147, (R)-4-methyl-1-((2-methyl-2H-indazol-6-yl)ethynyl)-N-(1-methylcyclopropyl)-5-oxo-1,2,4,5-tetrahydroimidazo[1,2-a]quinazoline-7-sulfonamide]
< 0.1 µM	CN1C(=O)c2cc(S(=O)(=O)NC3(C)CC3)ccc2N2C1=NC[C@H]2C#Cc1ccc2c(cnn2C)c1 [Example 148, (R)-4-methyl-1-((1-methyl-1H-indazol-5-yl)ethynyl)-N-(1-methylcyclopropyl)-5-oxo-1,2,4,5-tetrahydroimidazo[1,2-a]quinazoline-7-sulfonamide]
< 0.1 µM	Cn1cc(CN2C(=O)c3cc(S(=O)(=O)NC4(C)CC4)ccc3N3C2=NCC3COc2ccon2)cn1 (centres unmarked) [Example 150, 1-((isoxazol-3-yloxy)methyl)-4-((1-methyl-1H-pyrazol-4-yl)methyl)-N-(1-methylcyclopropyl)-5-oxo-1,2,4,5-tetrahydroimidazo[1,2-a]quinazoline-7-sulfonamide]
< 0.1 µM	Cn1cc(CN2C(=O)c3cc(S(=O)(=O)NC4(C)CC4)ccc3N3C2=NCC3COc2ccccc2F)cn1 (centres unmarked) [Example 151, 1-((2-fluorophenoxy)methyl)-4-((1-methyl-1H-pyrazol-4-yl)methyl)-N-(1-methylcyclopropyl)-5-oxo-1,2,4,5-tetrahydroimidazo[1,2-a]quinazoline-7-sulfonamide]
< 0.1 µM	CN(C)C1(C#C[C@@H]2CN=C3N(CC4(F)CC4)C(=O)c4cc(S(=O)(=O)NC5(C)CC5)ccc4N32)CC1 [Example 152, (R)-1-((1-(dimethylamino)cyclopropyl)ethynyl)-4-((1-fluorocyclopropyl)methyl)-N-(1-methylcyclopropyl)-5-oxo-1,2,4,5-tetrahydroimidazo[1,2-a]quinazoline-7-sulfonamide]
< 0.1 µM	Cn1cc(CN2C(=O)c3cc(S(=O)(=O)NC4(C)CC4)ccc3N3C[C@H](c4ccccc4)N=C23)cn1 [Example 155, (S)-4-((1-methyl-1H-pyrazol-4-yl)methyl)-N-(1-methylcyclopropyl)-5-oxo-2-phenyl-1,2,4,5-tetrahydroimidazo[1,2-a]quinazoline-7-sulfonamide]
0.1 to 1 µM	C#C[C@H]1CN2C(=N1)N(Cc1cnn(C)c1)C(=O)c1cc(S(=O)(=O)NC3(C)CC3)ccc12 [Example 156, (S)-2-ethynyl-4-((1-methyl-1H-pyrazol-4-yl)methyl)-N-(1-methylcyclopropyl)-5-oxo-1,2,4,5-tetrahydroimidazo[1,2-a]quinazoline-7-sulfonamide]
< 0.1 µM	CSCC#C[C@@H]1CN=C2N(Cc3cnn(C)c3)C(=O)c3cc(S(=O)(=O)NC4(C)CC4)ccc3N21 [Example 164, (R)-4-((1-methyl-1H-pyrazol-4-yl)methyl)-N-(1-methylcyclopropyl)-1-(3-(methylthio)prop-1-yn-1-yl)-5-oxo-1,2,4,5-tetrahydroimidazo[1,2-a]quinazoline-7-sulfonamide]
< 0.1 µM	Cn1cc(CN2C(=O)c3cc(S(=O)(=O)NC4(C)CC4)ccc3N3C2=NC[C@H]3C#Cc2ccnn2C)cn1 [Example 165, (R)-4-((1-methyl-1H-pyrazol-4-yl)methyl)-1-((1-methyl-1H-pyrazol-5-yl)ethynyl)-N-(1-methylcyclopropyl)-5-oxo-1,2,4,5-tetrahydroimidazo[1,2-a]quinazoline-7-sulfonamide]

More lines, now with the values behind:

SMILES	IC50
Cn1cc(CN2C(=O)c3cc(S(=O)(=O)NC4(C)CC4)ccc3N3C2=NCC3COc2ccc(Cl)cc2)cn1 (centres unmarked) [Example 143, 1-((4-chlorophenoxy)methyl)-4-((1-methyl-1H-pyrazol-4-yl)methyl)-N-(1-methylcyclopropyl)-5-oxo-1,2,4,5-tetrahydroimidazo[1,2-a]quinazoline-7-sulfonamide]	0.1 to 1 µM
Cn1cc(CN2C(=O)c3cc(S(=O)(=O)NC4(C)CC4)ccc3N3C2=NC[C@H]3c2ccccc2)cn1 [Example 144, (R)-4-((1-methyl-1H-pyrazol-4-yl)methyl)-N-(1-methylcyclopropyl)-5-oxo-1-phenyl-1,2,4,5-tetrahydroimidazo[1,2-a]quinazoline-7-sulfonamide]	< 0.1 µM
Cn1cc(CN2C(=O)c3cc(S(=O)(=O)NC4(C)CC4)ccc3N3C2=N[C@H]2CCCC[C@H]23)cn1 [Example 145, (7aS,11aR)-6-((1-methyl-1H-pyrazol-4-yl)methyl)-N-(1-methylcyclopropyl)-5-oxo-5,6,7a,8,9,10,11,11a-octahydrobenzo[4,5]imidazo[1,2-a]quinazoline-3-sulfonamide]	< 0.1 µM
CN1C(=O)c2cc(S(=O)(=O)NC3(C)CC3)ccc2N2C1=NC[C@H]2C#Cc1cnc2cccnn12 [Example 149, (R)-1-(imidazo[1,2-b]pyridazin-3-ylethynyl)-4-methyl-N-(1-methylcyclopropyl)-5-oxo-1,2,4,5-tetrahydroimidazo[1,2-a]quinazoline-7-sulfonamide]	< 0.1 µM
C#C[C@@H]1CN=C2N(Cc3cnc(C)o3)C(=O)c3cc(S(=O)(=O)NC4(C)CC4)ccc3N21 [Example 153, (R)-1-ethynyl-N-(1-methylcyclopropyl)-4-((2-methyloxazol-5-yl)methyl)-5-oxo-1,2,4,5-tetrahydroimidazo[1,2-a]quinazoline-7-sulfonamide]	< 0.1 µM
Cn1cc(CN2C(=O)c3cc(S(=O)(=O)NC4(C)CC4)ccc3N3C[C@H](COCc4ccccc4)N=C23)cn1 [Example 154, (R)-2-((benzyloxy)methyl)-4-((1-methyl-1H-pyrazol-4-yl)methyl)-N-(1-methylcyclopropyl)-5-oxo-1,2,4,5-tetrahydroimidazo[1,2-a]quinazoline-7-sulfonamide]	< 0.1 µM
Cn1cc(CN2C(=O)c3cc(S(=O)(=O)NC4(C)CC4)ccc3N3C2=N[C@H]2CCOC[C@H]23)cn1 [Example 157, (7aS,1laS)-6-((1-methyl-1H-pyrazol-4-yl)methyl)-N-(1-methylcyclopropyl)-5-oxo-6,7a,8,9,11,11a-hexahydro-5H-pyrano[4′,3′:4,5]imidazo[1,2-a]quinazoline-3-sulfonamide]	< 0.1 µM
Cn1cc(CN2C(=O)c3cc(S(=O)(=O)NC4(C)CC4)ccc3N3C2=N[C@H]2COCC[C@H]23)cn1 [Example 158, (7aR,11aR)-6-((1-methyl-1H-pyrazol-4-yl)methyl)-N-(1-methylcyclopropyl)-5-oxo-5,6,7a,10,11,11a-hexahydro-8H-pyrano[3′,4′:4,5]imidazo[1,2-a]quinazoline-3-sulfonamide]	0.1 to 1 µM
Cn1cc(CN2C(=O)c3cc(S(=O)(=O)NC4(C)CC4)ccc3N3C2=N[C@H]2CNCC[C@H]23)cn1 [Example 159, (7aS,11aR)-6-((1-methyl-1H-pyrazol-4-yl)methyl)-N-(1-methylcyclopropyl)-5-oxo-5,6,7a,8,9,10,11,11a-octahydropyrido[3′,4′:4,5]imidazo[1,2-a]quinazoline-3-sulfonamide]	1 to 10 µM
Cn1cc(CN2C(=O)c3cc(S(=O)(=O)NC4(C)CC4)ccc3N3C2=N[C@H]2CCNC[C@H]23)cn1 [Example 160, (7aS,11aR)-6-((1-methyl-1H-pyrazol-4-yl)methyl)-N-(1-methylcyclopropyl)-5-oxo-5,6,7a,8,9,10,11,11a-octahydropyrido[4′,3′:4,5]imidazo[1,2-a]quinazoline-3-sulfonamide]	0.1 to 1 µM
CN(C)C(=O)N1CC[C@@H]2N=C3N(Cc4cnn(C)c4)C(=O)c4cc(S(=O)(=O)NC5(C)CC5)ccc4N3[C@@H]2C1 [Example 161, (7aS,11aR)-N,N-dimethyl-6-((1-methyl-1H-pyrazol-4-yl)methyl)-3-(N-(1-methylcyclopropyl)sulfamoyl)-5-oxo-6,7a,8,9,11,1la-hexahydropyrido[4′,3′:4,5]imidazo[1,2-a]quinazoline-10(5H)-carboxamide]	1 to 10 µM
C#CCn1cc(CN2C(=O)c3cc(S(=O)(=O)NC4(C)CC4)ccc3N3C2=NC[C@H]3C)cn1 [Example 162, (R)-1-methyl-N-(1-methylcyclopropyl)-5-oxo-4-((1-(prop-2-yn-1-yl)-1H-pyrazol-4-yl)methyl)-1,2,4,5-tetrahydroimidazo[1,2-a]quinazoline-7-sulfonamide]	< 0.1 µM
[2H]C([2H])(c1cnn(C)c1)N1C(=O)c2cc(S(=O)(=O)NC3(C)CC3)ccc2N2C1=NC[C@H]2C#Cc1cnn(C)n1 [Example 163, (R)-4-((1-methyl-1H-pyrazol-4-yl)methyl-d2)-1-((2-methyl-2H-1,2,3-triazol-4-yl)ethynyl)-N-(1-methylcyclopropyl)-5-oxo-1,2,4,5-tetrahydroimidazo[1,2-a]quinazoline-7-sulfonamide]	< 0.1 µM
Cn1cc(CN2C(=O)c3cc(S(=O)(=O)NC4(C)CC4)ccc3N3C2=NC[C@H]3C#Cc2cnnn2C)cn1 [Example 166, (R)-1-((1-methyl-1H-1,2,3-triazol-5-yl)ethynyl)-4-((1-methyl-1H-pyrazol-4-yl)methyl)-N-(1-methylcyclopropyl)-5-oxo-1,2,4,5-tetrahydroimidazo[1,2-a]quinazoline-7-sulfonamide]	< 0.1 µM
CN1C(=O)c2cc(S(=O)(=O)NC3(C)CC3)ccc2N2C1=NCC2C#Cc1cnc2ccccn12 (centres unmarked) [Example 167, 1-(imidazo[1,2-a]pyridin-3-ylethynyl)-4-methyl-N-(1-methylcyclopropyl)-5-oxo-1,2,4,5-tetrahydroimidazo[1,2-a]quinazoline-7-sulfonamide]	< 0.1 µM
CN1C(=O)c2cc(S(=O)(=O)NC3(C)CC3)ccc2N2C1=NCC2C#Cc1c[nH]c2cnccc12 (centres unmarked) [Example 168, 1-((1H-pyrrolo[2,3-c]pyridin-3-yl)ethynyl)-4-methyl-N-(1-methylcyclopropyl)-5-oxo-1,2,4,5-tetrahydroimidazo[1,2-a]quinazoline-7-sulfonamide]	0.1 to 1 µM

— patent publication US20260285875A1, “INHIBITORS OF PARG” (858 Therapeutics, Inc., priority 2023, published 2026)
